Laboratory results: patent publication EP2266984A1, “Pyrido[2,3-d]pyrimidines as Wnt antagonists for treatment of cancer and arthritis” (Deutsches Krebsforschungszentrum Stiftung des öffentlichen …, priority 2009, dated 2010)

Key:
[1] = tested on: Hek293T; assay: CellTiterGlo cytotoxicity assay in Hek293T; assay type: cell-based; conditions: 24h after compound addition
Procedure: (§1) For examination of cytotoxicity in these cancer cell lines the commercial available CellTiterGlo® Reagent (Promega, USA) was used according to the manufactor.
(§2) Compounds were applied to Hek293T (denoted (1)) or HepG2 (denoted (2)), cultured in Dulbecco's Modified Eagles Medium, supplemented with 10% fetal calf serum and 1% penicillin/streptomycin. Cells were grown in T75 flasks at 37 °C, 5% CO2 and trypsinized when 60-80% confluent by adding 2 ml of 0.25% Trypsin-EDTA solution. Cells were then re-suspended into culture medium yielding approx. 4000 cells (1) or 4500 cells (2), suspended in 30 microl medium. 48h after cell seeding, compounds were added to yield the desired final concentrations. 24h after compound addition cytotoxicity was evaluated. For this purpose the media was removed and CellTiterGlo® was added according to the manufactors manual. In this assay the luciferase emission readout is directly correlated with the cellular amount of ATP, low luciferase emission thus is reflecting cytotoxicity of a compound. For the evaluation of the IC50 the compound was applied in increasing concentrations yielding final concentrations per well of 5nM - 100 microM.

[2] = tested on: HepG2; assay: CellTiterGlo cytotoxicity assay in HepG2; assay type: cell-based; conditions: 24h after compound addition
Procedure: as §1, §2

[3] = tested on: HFF-1; assay: Cell line specific cytotoxicity, HFF-1 fibroblasts; assay type: cell-based, human; conditions: 10 microM; HFF-1 cell line
Procedure: For examination of cell line-specific cytotoxicity, compounds were applied to human colorectal cancer cells (HCT116, denoted (1); SW480, denoted (2); Dld-1, denoted (3)) and human fibroblasts (HFF-1, denoted (4); HS-68, denoted (5)), cultured in Mc Coy's (1) and Dulbecco's Modified Eagles Medium ((2)-(5)), supplemented with 10% ((1)-(3)) and 20% ((4), (5)) fetal calf serum and 1% penicillin/streptomycin. Cells were grown in T75 flasks at 37 °C, 5% CO2 and trypsinized when 60-80% confluent by adding 2 ml of 0.25% Trypsin-EDTA solution. Cells were then re-suspended into culture medium yielding approx. 750 cells, suspended in 45 microl medium, were plated into each well of a black 384-well plate for fluorescence imaging experiments. […] Compound incubation was terminated by (a) fixation and (b) permeabilisation of cells, followed by (c) fluorescence labeling of cell nuclei for cytometric quantification or by immunocytochemistry for microscopic evaluation of cell morphology. […]
Cell line-specific cytotoxicity was quantified by counting the number of Hoechst labeled nuclei per well of a 384-well plate using a plate cytometer. Data obtained with the cytometer was analysed using standard data analysis software.
Identified hits were further evaluated by visual inspection of fluorescence micrographs obtained from imaging using a conventional fluorescence microscope.

Row | Compound | Normalized toxicity values (Hek293T) ([1]; 0.005 microM) | Normalized toxicity values (Hek293T) ([1]; 0.015 microM) | Normalized toxicity values (Hek293T) ([1]; 0.046 microM) | Normalized toxicity values (Hek293T) ([1]; 0.137 microM) | Normalized toxicity values (Hek293T) ([1]; 0.412 microM) | Normalized toxicity values (Hek293T) ([1]; 1.235 microM) | Normalized toxicity values (Hek293T) ([1]; 3.704 microM) | Normalized toxicity values (Hek293T) ([1]; 11.111 microM) | Normalized toxicity values (Hek293T) ([1]; 33.333 microM) | Normalized toxicity values (Hek293T) ([1]; 100.000 microM) | Normalized toxicity values (HepG2) ([2]; 0.005 microM) | Normalized toxicity values (HepG2) ([2]; 0.015 microM) | Normalized toxicity values (HepG2) ([2]; 0.046 microM) | Normalized toxicity values (HepG2) ([2]; 0.137 microM) | Normalized toxicity values (HepG2) ([2]; 0.412 microM) | Normalized toxicity values (HepG2) ([2]; 1.235 microM) | Normalized toxicity values (HepG2) ([2]; 3.704 microM) | Normalized toxicity values (HepG2) ([2]; 11.111 microM) | Normalized toxicity values (HepG2) ([2]; 33.333 microM) | Normalized toxicity values (HepG2) ([2]; 100.000 microM) | other results
1 | CCOC(=O)c1c(C)nc2c(c(N3CCN(Cc4ccccc4F)CC3)nc(=O)n2-c2ccccc2)c1-c1ccccc1 [Example 150] | 1.1200 | 1.0780 | 1.0735 | 1.0278 | 1.0553 | 0.9703 | 1.1975 | 1.2900 | 1.3025 | 1.5500 | 1.1325 | 1.1350 | 1.0275 | 1.0350 | 0.9625 | 0.9870 | 1.0658 | 1.0800 | 1.1425 | 1.2175 | 
2 | CCOC(=O)c1c(C)nc2c(c(N3CCN(C(c4ccc(F)cc4)c4ccc(F)cc4)CC3)nc(=O)n2-c2ccccc2)c1-c1ccccc1 [Example 157] | 1.1275 | 1.0600 | 1.1075 | 1.0975 | 0.9535 | 0.9633 | 1.0078 | 1.1475 | 1.3825 | 1.5650 | 1.1125 | 1.0775 | 1.1275 | 1.0175 | 0.9413 | 0.9785 | 0.9853 | 1.0043 | 1.1100 | 1.1575 | 
3 | CCOC(=O)c1c(C)nc2c(c(N3CCN(C/C=C/c4ccccc4)CC3)nc(=O)n2-c2ccccc2)c1-c1ccccc1 [Example 153, 7-Methyl-2-oxo-1,5-diphenyl-4-[4-((E)-3-phenyl-allyl)-piperazin-1-yl]-1,2-dihydro-pyrido[2,3-d]pyrimidine-6-carboxylic acid ethyl ester] | 1.0725 | 1.0650 | 1.0425 | 0.9703 | 1.0800 | 1.0623 | 1.1125 | 1.1475 | 1.1375 | 0.0290 | 1.0700 | 1.0658 | 0.9725 | 0.9743 | 0.9480 | 0.9543 | 1.1225 | 1.2725 | 1.2650 | 0.0718 | Effect on normal cells (HFF-1) [3]: not affected
